According to patent US10065990B2, “Cyclic peptide compound, and preparation method, pharmaceutical composition and use thereof” (HANGZHOU GUANYU BIO-MEDICAL CO., LTD, priority 2013, dated 2018):
Like-named read-outs stand apart in the source and are kept apart here.

Experiments:
[1] = system: A549 (human lung cancer cells); assay: MTT cancer cell growth inhibition; format: cell-based; conditions: Homo sapiens, A549, 72 h, MTT, 72 hours incubation, read-out: GI50 A54
Description: (§1) MTT assay principle is yellow MTT can penetrate membrane into the cell, succinic dehydrogenase of the mitochondria in living cells can make exogenous MTT reduction of insoluble in water of blue-violet acicular formazan for crystallization and deposition in the cell, crystallization can be dissolved dimethyl sulfoxide (DMSO) solution, detected its absorbance at 490 nm/570 nm wavelength by enzyme-linked immunosorbent assay, which can reflect the number of cells.
(§2) Using DMEM+10% FBS culture medium or using 1640+10% FBS culture, respectively.
(§3) a) Cells were seeded in 96-well plates with the inoculation of 1500/well, 190 μl/hole, 37° C., 5% of CO2 incubator overnight;
(§4) b) The next day each well was added 10 μl of different drugs. The final concentration of drug was 10^−5˜10^−10M, three parallel holes; 37° C., 5% CO2 culture incubator for 72 hours incubation;
(§5) c) Per well was added 20 μl 5 mg/ml of MTT, 37° C., 5% CO2 culture incubator for 4 hours incubation;
(§6) d) The supernatant was discarded. Each well was added 100 μl of DMSO and oscillation;
(§7) e) 570 nm readings. Calculate cell viability. GI50 calculation based on the results.

[2] = system: MDA-MB-231 (breast cancer cells); assay: MTT cancer cell growth inhibition; format: cell-based; conditions: Homo sapiens, MDA-MB-231, 72 h, read-out: GI50 MDA-MB-231, MTT, 72 hours incubation, MDA-MB-231 cells
Description: as §1, §2, §3, §4, §5, §6, §7

[3] = system: K562 (human leukemia cells); assay: MTT cancer cell growth inhibition; format: cell-based; conditions: Homo sapiens, K562, 72 h, MTT, 72 hours incubation, K562 cells; read-out: GI50 K562
Description: as §1, §2, §3, §4, §5, §6, §7

[4] = system: HCC827 (human non-small cell lung cancer cells); assay: MTT cancer cell growth inhibition; format: cell-based; conditions: Homo sapiens, HCC827, 72 h, MTT, 72 hours incubation, HCC827 cells; read-out: GI50 HCC827
Description: as §1, §2, §3, §4, §5, §6, §7

[5] = system: PANC-1 (Pac-1, human pancreatic cancer cells); assay: MTT cancer cell growth inhibition; format: cell-based; conditions: Homo sapiens, PANC-1, 72 h, MTT, 72 hours incubation, read-out: GI50 PAN
Description: as §1, §2, §3, §4, §5, §6, §7

[6] = system: U937 (human leukemia cells); assay: MTT cancer cell growth inhibition; format: cell-based; conditions: Homo sapiens, U-937, 72 h, MTT, 72 hours incubation, read-out: GI50 U93
Description: as §1, §2, §3, §4, §5, §6, §7

[7] = system: MOLT-4 (human acute lymphoblastic leukemia cells); assay: MTT cancer cell growth inhibition; format: cell-based; conditions: Homo sapiens, MOLT-4, 72 h, MTT, 72 hours incubation, read-out: GI50 Mol
Description: as §1, §2, §3, §4, §5, §6, §7

[8] = system: KBM-5 (human chronic myelogenous leukemia); assay: MTT cancer cell growth inhibition; format: cell-based; conditions: Homo sapiens, KBM5, 72 h, MTT, 72 hours incubation, KBM-5 cells; read-out: GI50 KBM-5
Description: as §1, §2, §3, §4, §5, §6, §7

[9] = system: DU145 (human prostate cancer cells); assay: MTT cancer cell growth inhibition; format: cell-based; conditions: Homo sapiens, DU-145, 72 h, MTT, 72 hours incubation, read-out: GI50 Du1
Description: as §1, §2, §3, §4, §5, §6, §7

[10] = system: MCF-7 (human breast cancer cells); assay: MTT cancer cell growth inhibition; format: cell-based; conditions: Homo sapiens, MCF7, 72 h, 72 hours incubation, read-out: GI50 MCF
Description: as §1, §2, §3, §4, §5, §6, §7

[11] = system: Huh-7 (human hepatoma cells); assay: MTT cancer cell growth inhibition; format: cell-based; conditions: Homo sapiens, Huh-7, 72 h, MTT, 72 hours incubation, Huh-7 cells; read-out: GI50 Huh-7
Description: as §1, §2, §3, §4, §5, §6, §7

[12] = system: KBM5-T315I (human chronic myelogenous leukemia); assay: MTT cancer cell growth inhibition; format: cell-based; conditions: Homo sapiens, 72 h, MTT, 72 hours incubation, KBM5-T315I cells; read-out: GI50 KBM5-T315I
Description: as §1, §2, §3, §4, §5, §6, §7

[13] = system: N-87 (human gastric cancer cells); assay: MTT cancer cell growth inhibition; format: cell-based; conditions: Homo sapiens, 72 h, MTT, 72 hours incubation, N-87 cells; read-out: GI50 N-87
Description: as §1, §2, §3, §4, §5, §6, §7

[14] = system: Hela (human cervical cancer cells); assay: MTT cancer cell growth inhibition; format: cell-based; conditions: Homo sapiens, HeLa, 72 h, MTT, 72 hours incubation, read-out: GI50 Hela
Description: as §1, §2, §3, §4, §5, §6, §7

[15] = system: HT1080 (human fibrosarcoma cells); assay: MTT cancer cell growth inhibition; format: cell-based; conditions: Homo sapiens, HT-1080, 72 h, MTT, 72 hours incubation, read-out: GI50 HT1
Description: as §1, §2, §3, §4, §5, §6, §7

[16] = system: H1975 (non-small cell lung adenocarcinoma); assay: MTT cancer cell growth inhibition; format: cell-based; conditions: Homo sapiens, NCI-H1975, 72 h, MTT, 72 hours incubation, H1975 cells; read-out: GI50 H1975
Description: as §1, §2, §3, §4, §5, §6, §7

[17] = system: BGC-823 (human gastric cancer cells); assay: MTT cancer cell growth inhibition; format: cell-based; conditions: Homo sapiens, BGC-823, 72 h, MTT, 72 hours incubation, read-out: GI50 BG
Description: as §1, §2, §3, §4, §5, §6, §7

[18] = system: Bel-7402 (human hepatoma cells); assay: MTT cancer cell growth inhibition; format: cell-based; conditions: Homo sapiens, Bel-7402, 72 h, MTT, 72 hours incubation, Bel-7402 cells; read-out: GI50 Bel-7402
Description: as §1, §2, §3, §4, §5, §6, §7

[19] = system: SGC-7901 (human gastric cancer cells); assay: MTT cancer cell growth inhibition; format: cell-based; conditions: Homo sapiens, SGC-7901, 72 h, MTT, 72 hours incubation, SGC-7901 cells; read-out: GI50 SGC-7901
Description: as §1, §2, §3, §4, §5, §6, §7

[20] = system: lncap (prostate cancer cells); assay: MTT cancer cell growth inhibition; format: cell-based; conditions: Homo sapiens, LNCaP, 72 h, MTT, 72 hours incubation, read-out: GI50 lnca
Description: as §1, §2, §3, §4, §5, §6, §7

HDAC7 = target: T1, HDAC7 (Homo sapiens, UniProt Q8WUI4); assay: HDAC biochemical activity measurement (fluorescent substrate deacetylation);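 note: fluorogenic deacetylation assay using acetyl-lysine substrate at 20 µM, enzyme and compound incubated 30 min at 37 °C, then developer added, fluorescence read at 360/460 nm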; conditions: HDAC7; 37° C. 30 minutes
T1 sequence (Q8WUI4 1-952): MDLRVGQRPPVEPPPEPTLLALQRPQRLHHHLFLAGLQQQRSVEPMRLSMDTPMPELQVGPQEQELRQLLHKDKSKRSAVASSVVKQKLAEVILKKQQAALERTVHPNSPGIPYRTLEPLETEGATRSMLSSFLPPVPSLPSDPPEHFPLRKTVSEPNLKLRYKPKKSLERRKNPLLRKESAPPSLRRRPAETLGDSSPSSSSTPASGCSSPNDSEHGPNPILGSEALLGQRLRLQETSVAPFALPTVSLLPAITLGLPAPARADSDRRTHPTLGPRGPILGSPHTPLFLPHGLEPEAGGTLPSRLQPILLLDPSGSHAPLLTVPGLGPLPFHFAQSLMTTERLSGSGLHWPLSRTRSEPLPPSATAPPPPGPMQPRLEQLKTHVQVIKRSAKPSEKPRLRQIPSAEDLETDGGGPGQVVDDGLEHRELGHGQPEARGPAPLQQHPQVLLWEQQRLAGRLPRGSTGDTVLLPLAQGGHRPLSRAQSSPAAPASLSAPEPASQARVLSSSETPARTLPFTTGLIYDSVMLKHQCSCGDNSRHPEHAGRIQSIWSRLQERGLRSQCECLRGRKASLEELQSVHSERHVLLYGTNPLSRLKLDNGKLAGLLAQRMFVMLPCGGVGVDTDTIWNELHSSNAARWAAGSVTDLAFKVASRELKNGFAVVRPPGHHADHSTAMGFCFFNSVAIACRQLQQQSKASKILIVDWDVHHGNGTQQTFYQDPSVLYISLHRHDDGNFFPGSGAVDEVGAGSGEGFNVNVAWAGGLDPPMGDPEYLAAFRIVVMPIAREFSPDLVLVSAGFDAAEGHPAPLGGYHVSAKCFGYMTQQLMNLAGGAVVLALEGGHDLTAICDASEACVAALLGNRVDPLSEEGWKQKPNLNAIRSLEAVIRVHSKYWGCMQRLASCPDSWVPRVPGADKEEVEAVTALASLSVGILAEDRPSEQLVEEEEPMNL

| Structure (SMILES) | GI50 [1] [nM] | GI50 [2] [nM] | GI50 [3] [nM] | GI50 [4] [nM] | GI50 [5] [nM] | GI50 [6] [nM] | GI50 [7] [nM] | GI50 [8] [nM] | GI50 [9] [nM] | GI50 [10] [nM] | GI50 [11] [nM] | GI50 [12] [nM] | GI50 [13] [nM] | GI50 [14] [nM] | GI50 [15] [nM] | GI50 [16] [nM] | GI50 [17] [nM] | GI50 [18] [nM] | GI50 [19] [nM] | IC50 HDAC7 (HDAC7) | further results |
| --- | --- | --- | --- | --- | --- | --- | --- | --- | --- | --- | --- | --- | --- | --- | --- | --- | --- | --- | --- | --- | --- |
| C/C=C1\NC(=O)c2cc(F)cc(n2)CNC(=O)C[C@@H](/C=C/CCSC(C)=O)OC(=O)[C@@H](C)NC1=O [Compound 101] | 70 | 52 | 21 | 39 | 40 | 50 | 20 | 41 | 30 | 20 | 36 | 36 | 26 | 40 | 40 | 69 | 30 | 45 | 48 | no activity | GI50 [20]: 20 nM |
| C/C=C1\NC(=O)c2ccc(F)c(n2)CNC(=O)C[C@@H](/C=C/CCSC(C)=O)OC(=O)[C@H](C)NC1=O [Example 65] | 70 | 43 | 29 | 62 | 60 | 20 | 40 | 92 | 20 | 60 | 43 | 63 | 52 | 90 | 60 | 29 | 50 | 62 | 77 | no activity | GI50 [20]: 40 nM |
| C=C1NC(=O)c2cccc(n2)CNC(=O)C[C@@H](/C=C/CCSC(C)=O)OC(=O)[C@H](C)NC1=O [Example 21] | 330 | 98 | 25 | 34 | 1170 | 5110 | 1010 | 73 | 990 | 100 | 84 | 27 | 35 | 400 | 1050 | 37 | 870 | 83 | 24 | no activity | GI50 [20]: 1210 nM |

More lines, main results first:

| GI50 [1] [nM] | GI50 [2] [nM] | GI50 [3] [nM] | GI50 [4] [nM] | GI50 [5] [nM] | GI50 [6] [nM] | GI50 [7] [nM] | GI50 [8] [nM] | GI50 [9] [nM] | GI50 [10] [nM] | GI50 [11] [nM] | GI50 [12] [nM] | GI50 [13] [nM] | GI50 [14] [nM] | GI50 [15] [nM] | GI50 [16] [nM] | GI50 [17] [nM] | GI50 [18] [nM] | GI50 [19] [nM] | IC50 HDAC7 (HDAC7) | Structure (SMILES) | further results |
| --- | --- | --- | --- | --- | --- | --- | --- | --- | --- | --- | --- | --- | --- | --- | --- | --- | --- | --- | --- | --- | --- |
| 30 | 55 | 73 | 39 | 130 | 50 | 20 | 41 | 50 | 50 | 49 | 53 | 35 | 40 | 70 | 23 | 70 | 53 | 23 | no activity | C/C=C1\NC(=O)c2nc(ccc2F)CNC(=O)C[C@@H](/C=C/CCS)OC(=O)[C@H](Cc2ccc(O)cc2)NC1=O [Compound 128] | GI50 [20]: 100 nM |
| 60 | 27 | 36 | 37 | 40 | 60 | 90 | 62 | 50 | 50 | 26 | 28 | 38 | 90 | 90 | 38 | 40 | 37 | 34 | no activity | C/C=C1\NC(=O)c2cccc(n2)CNC(=O)C[C@@H](/C=C/CCS)OC(=O)[C@H](CCCCNC(=O)OCC2c3ccccc3-c3ccccc32)NC1=O [Compound 119] | GI50 [20]: 90 nM |
|  | 39 | 39 | 89 |  |  |  | 36 |  |  | 16 | 21 | 28 |  |  | 63 |  | 52 | 43 | no activity | C/C=C1\NC(=O)c2nc(ccc2SC)CNC(=O)C[C@@H](/C=C/CCSC(C)=O)OC(=O)[C@H](Cc2ccccc2)NC1=O [Compound 186] | GI50 ([1]; A549 cells): 30 nM; GI50 ([5]; PANC-1 cells): 50 nM; GI50 ([6]; U937 cells): 40 nM; GI50 ([7]; MOLT-4 cells): 30 nM; GI50 ([9]; DU145 cells): 100 nM; GI50 ([10]; MCF-7 cells): 50 nM; GI50 ([14]; Hela cells): 70 nM; GI50 ([15]; HT1080 cells): 20 nM; GI50 ([17]; BGC-823 cells): 40 nM; GI50 ([20]; lncap cells): 30 nM |
